{"source": "paper PMC6378217", "about": "“The lysyl oxidase like 2/3 enzymatic inhibitor, PXS‐5153A, reduces crosslinks and ameliorates fibrosis” (Journal of Cellular and Molecular Medicine, 2018)", "key": {"[1]": {"biological_target": "Serotonin (5-Hydroxytryptamine) 5-HT2B (Homo sapiens, UniProt P41595)", "sequence (P41595 whole entry)": "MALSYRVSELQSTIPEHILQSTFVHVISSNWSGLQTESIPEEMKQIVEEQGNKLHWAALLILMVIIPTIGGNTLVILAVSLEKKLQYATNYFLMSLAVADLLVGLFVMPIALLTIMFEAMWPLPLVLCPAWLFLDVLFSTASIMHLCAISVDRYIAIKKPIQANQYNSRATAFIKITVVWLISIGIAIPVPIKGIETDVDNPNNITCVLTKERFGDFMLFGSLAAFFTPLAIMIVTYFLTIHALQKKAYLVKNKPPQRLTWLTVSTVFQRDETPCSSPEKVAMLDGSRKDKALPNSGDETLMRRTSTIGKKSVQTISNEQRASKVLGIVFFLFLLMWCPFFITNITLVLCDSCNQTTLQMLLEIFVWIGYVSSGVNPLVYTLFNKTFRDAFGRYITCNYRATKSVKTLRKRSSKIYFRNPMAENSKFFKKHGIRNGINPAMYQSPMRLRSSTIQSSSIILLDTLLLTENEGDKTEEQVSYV", "test": "Eurofins Hit Profiling Screen", "type": "binding", "conditions": "10 μmol/L"}, "[2]": {"test": "Pharmacokinetic study in mice", "type": "in vivo, C57/BL6 mice", "conditions": "mouse", "procedure": "(§1) Studies were performed by Pharmalegacy (Shanghai, China), GVK (Hyderabad, India) and Sundia, (Shanghai, China), with local ethics approval. Wistar rats were administered PXS‐5153A orally at 10 mg/kg or intravenously at 5 mg/kg, while C57/BL6 mice received PXS‐5153A orally or intravenously at 5 mg/kg. Plasma was analysed for PXS‐5153A by high‐performance liquid chromatography‐mass spectrometry/mass spectrometry (LCMS/MS)."}, "Recombinant human LOXL4": {"biological_target": "T1, Recombinant human LOXL4 (Homo sapiens, UniProt Q96JB6)", "T1 construct": "obtained from Dr. Fernando Rodríguez Pascual, university of Madrid, Spain (academic provider, not a vendor)", "T1 sequence (Q96JB6 25-756)": "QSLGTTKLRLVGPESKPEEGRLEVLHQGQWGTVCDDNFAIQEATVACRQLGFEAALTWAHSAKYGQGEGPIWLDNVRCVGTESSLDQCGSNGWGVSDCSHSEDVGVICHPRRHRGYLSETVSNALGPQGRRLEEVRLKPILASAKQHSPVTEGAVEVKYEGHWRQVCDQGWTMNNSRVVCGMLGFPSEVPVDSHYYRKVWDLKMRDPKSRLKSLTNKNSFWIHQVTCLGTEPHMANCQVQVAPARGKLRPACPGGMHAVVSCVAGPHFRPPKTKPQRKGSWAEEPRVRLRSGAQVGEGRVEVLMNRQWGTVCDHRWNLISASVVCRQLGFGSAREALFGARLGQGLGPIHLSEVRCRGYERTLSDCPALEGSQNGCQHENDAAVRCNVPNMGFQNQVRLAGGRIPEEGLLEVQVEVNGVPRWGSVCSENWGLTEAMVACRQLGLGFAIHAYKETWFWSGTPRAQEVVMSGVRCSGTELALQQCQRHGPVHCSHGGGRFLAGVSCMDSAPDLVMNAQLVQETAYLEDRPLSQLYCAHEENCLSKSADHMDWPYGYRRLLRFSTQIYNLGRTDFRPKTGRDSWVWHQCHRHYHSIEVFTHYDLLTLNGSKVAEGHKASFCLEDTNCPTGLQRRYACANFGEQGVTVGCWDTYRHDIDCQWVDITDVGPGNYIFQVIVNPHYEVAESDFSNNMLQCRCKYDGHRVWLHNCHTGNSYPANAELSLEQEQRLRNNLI", "test": "Amplex-Red fluorometric enzymatic activity assay, recombinant human LOXL4", "type": "biochemical", "conditions": "30 minute pre-incubation; average of at least three experiments", "procedure": "(§2) The measurement of the enzymatic activity of all lysyl oxidase family members was based on the detection of hydrogen peroxide with an Amplex‐Red oxidation assay, as described in Zhou et al26 Recombinant human semicarbazide sensitive amine oxidase (SSAO/VAP1), diamine oxidase (DAO) and monoamine oxidases A and B (MAO‐A and MAO‐B) assays were performed as previously described.27 For detailed enzymatic procedures, see supporting information.\n(§3) The measurement of the enzymatic activity of all lysyl oxidase family members was based on the detection of hydrogen peroxide with an Amplex-Red oxidation assay, as described in Zhou et al.[1]; miniaturised in 384 well format, with the appropriate combination of substrate and assay buffer for each individual enzyme. After a 30 minute pre-incubation of the enzyme at 37 °C with the test compound (or with different incubation times for the time-dependency assay), one volume of reaction mixture containing 120 μM Amplex Red (AR) (Life Technologies), 1.5 U/mL horseradish peroxidase (HRP) (Sigma-Aldrich) and the specific substrate was added to each sample. The relative fluorescence units (RFU) were then measured every 2.5 minutes for 30 minutes at 37°C, excitation 565 nm and emission 590, on a BMG Clariostar Microplate Reader. […]"}, "[3]": {"biological_target": "Recombinant human semicarbazide sensitive amine oxidase (SSAO/VAP1) (Homo sapiens, UniProt Q16853)", "sequence (Q16853 whole entry)": "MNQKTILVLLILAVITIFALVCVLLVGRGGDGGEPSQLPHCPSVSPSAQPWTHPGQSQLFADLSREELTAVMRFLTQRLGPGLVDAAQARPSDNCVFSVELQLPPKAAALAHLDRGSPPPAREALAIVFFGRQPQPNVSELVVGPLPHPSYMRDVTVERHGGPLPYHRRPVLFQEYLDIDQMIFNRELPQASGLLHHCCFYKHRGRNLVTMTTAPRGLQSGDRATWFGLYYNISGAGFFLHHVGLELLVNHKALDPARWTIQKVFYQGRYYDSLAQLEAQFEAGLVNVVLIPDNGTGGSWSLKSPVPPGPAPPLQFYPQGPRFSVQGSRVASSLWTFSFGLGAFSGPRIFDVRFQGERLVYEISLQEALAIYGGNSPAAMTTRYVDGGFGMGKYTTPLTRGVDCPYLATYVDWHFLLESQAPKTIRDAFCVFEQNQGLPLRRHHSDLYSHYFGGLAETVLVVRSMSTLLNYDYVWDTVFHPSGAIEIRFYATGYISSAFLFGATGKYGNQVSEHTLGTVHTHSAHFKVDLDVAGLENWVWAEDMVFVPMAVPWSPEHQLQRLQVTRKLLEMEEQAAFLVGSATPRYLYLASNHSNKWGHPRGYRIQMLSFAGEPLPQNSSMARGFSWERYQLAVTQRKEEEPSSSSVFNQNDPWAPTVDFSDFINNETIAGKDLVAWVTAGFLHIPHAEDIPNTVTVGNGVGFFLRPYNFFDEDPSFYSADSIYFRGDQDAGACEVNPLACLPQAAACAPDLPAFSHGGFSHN", "test": "SSAO/VAP1 enzymatic activity assay", "type": "biochemical", "procedure": "as §2\nRecombinant human semicarbazide sensitive amine oxidase (SSAO/VAP1), diamine oxidase (DAO) and monoamine oxidases A and B (MAO-A and MAO-B) assays were performed as previously described."}, "Recombinant dog LOXL2": {"biological_target": "T2, Recombinant dog LOXL2 (Canis lupus familiaris, UniProt A0A8I3P9Y5)", "T2 construct": "made in house; host or cells: HEK-293 clones provided by Dr. Fernando Rodríguez Pascual", "T2 sequence (A0A8I3P9Y5 1-777)": "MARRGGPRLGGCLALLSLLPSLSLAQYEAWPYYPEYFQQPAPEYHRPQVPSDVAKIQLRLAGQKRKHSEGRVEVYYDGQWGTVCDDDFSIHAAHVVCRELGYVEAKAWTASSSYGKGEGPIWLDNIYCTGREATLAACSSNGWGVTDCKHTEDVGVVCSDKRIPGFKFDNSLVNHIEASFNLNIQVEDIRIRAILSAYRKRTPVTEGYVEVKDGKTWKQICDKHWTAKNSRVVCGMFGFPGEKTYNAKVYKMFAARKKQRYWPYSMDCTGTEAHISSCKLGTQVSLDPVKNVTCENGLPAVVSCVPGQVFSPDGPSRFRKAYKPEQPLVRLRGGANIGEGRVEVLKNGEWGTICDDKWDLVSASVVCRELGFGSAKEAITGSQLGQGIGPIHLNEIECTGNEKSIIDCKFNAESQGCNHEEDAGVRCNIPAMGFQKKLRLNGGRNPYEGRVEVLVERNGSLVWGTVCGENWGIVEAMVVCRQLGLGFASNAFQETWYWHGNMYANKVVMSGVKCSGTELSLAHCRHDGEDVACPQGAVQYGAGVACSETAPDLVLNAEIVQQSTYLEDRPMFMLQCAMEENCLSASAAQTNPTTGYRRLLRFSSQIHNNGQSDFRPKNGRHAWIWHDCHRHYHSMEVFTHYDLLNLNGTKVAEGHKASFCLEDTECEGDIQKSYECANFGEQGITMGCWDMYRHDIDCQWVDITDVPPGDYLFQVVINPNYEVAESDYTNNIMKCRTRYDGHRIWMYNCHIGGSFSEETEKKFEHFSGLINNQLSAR", "test": "Amplex-Red fluorometric enzymatic activity assay, recombinant dog LOXL2", "type": "biochemical", "conditions": "30 minute pre-incubation; average of at least three experiments", "procedure": "as §2, §3"}, "Cannabinoid CB1": {"biological_target": "Cannabinoid CB1 (Homo sapiens, UniProt P21554)", "test": "Eurofins Hit Profiling Screen", "type": "binding", "conditions": "10 μmol/L"}, "Muscarinic M3": {"biological_target": "Muscarinic M3 (Homo sapiens, UniProt P20309)", "sequence (P20309 whole entry)": "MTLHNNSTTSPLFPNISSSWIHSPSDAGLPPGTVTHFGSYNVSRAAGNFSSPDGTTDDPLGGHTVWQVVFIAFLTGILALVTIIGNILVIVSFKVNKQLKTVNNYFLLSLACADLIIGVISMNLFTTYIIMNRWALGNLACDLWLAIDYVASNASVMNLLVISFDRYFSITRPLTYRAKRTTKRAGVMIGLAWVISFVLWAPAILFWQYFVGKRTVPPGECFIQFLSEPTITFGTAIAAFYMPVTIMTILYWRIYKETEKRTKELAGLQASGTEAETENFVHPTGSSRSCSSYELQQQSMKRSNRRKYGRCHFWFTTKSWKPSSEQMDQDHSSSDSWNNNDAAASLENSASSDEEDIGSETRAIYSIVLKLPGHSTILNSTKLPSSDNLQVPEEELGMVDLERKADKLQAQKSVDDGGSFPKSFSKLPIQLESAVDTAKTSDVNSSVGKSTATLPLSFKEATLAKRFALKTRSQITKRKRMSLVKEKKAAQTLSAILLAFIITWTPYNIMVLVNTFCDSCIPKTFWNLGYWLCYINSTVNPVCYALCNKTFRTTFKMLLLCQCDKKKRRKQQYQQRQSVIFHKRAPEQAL", "test": "Eurofins Hit Profiling Screen", "type": "binding", "conditions": "10 μmol/L"}, "Recombinant mouse LOXL2": {"biological_target": "T3, Recombinant mouse LOXL2 (Mus musculus, UniProt P58022)", "T3 construct": "purchased R&D Systems", "T3 sequence (P58022 26-776)": "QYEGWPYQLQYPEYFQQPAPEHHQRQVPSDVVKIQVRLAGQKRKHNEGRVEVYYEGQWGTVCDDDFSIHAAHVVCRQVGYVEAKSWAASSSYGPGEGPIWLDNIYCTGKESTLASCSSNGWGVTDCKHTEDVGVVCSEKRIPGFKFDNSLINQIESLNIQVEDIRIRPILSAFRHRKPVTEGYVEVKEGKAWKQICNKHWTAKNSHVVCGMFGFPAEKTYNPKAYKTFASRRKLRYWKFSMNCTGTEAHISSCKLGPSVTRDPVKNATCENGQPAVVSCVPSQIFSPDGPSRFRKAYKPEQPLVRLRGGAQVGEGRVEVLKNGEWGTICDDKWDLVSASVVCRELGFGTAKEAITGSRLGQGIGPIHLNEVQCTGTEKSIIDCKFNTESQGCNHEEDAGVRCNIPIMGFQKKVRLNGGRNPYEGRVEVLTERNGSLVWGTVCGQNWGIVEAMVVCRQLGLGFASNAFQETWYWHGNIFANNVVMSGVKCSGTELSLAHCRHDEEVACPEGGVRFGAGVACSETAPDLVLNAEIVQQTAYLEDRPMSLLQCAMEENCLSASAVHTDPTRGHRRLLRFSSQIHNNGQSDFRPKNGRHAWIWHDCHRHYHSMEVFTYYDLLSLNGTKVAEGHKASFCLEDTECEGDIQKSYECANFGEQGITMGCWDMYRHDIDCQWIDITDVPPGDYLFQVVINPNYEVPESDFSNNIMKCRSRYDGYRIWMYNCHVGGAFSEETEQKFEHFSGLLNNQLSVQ", "test": "Amplex-Red fluorometric enzymatic activity assay, recombinant mouse LOXL2", "type": "biochemical", "conditions": "30 minute pre-incubation; average of at least three experiments", "procedure": "as §2, §3"}, "Recombinant human LOXL3": {"biological_target": "T4, Recombinant human LOXL3 (Homo sapiens, UniProt P58215)", "T4 construct": "purchased R&D Systems", "T4 sequence (P58215 26-753)": "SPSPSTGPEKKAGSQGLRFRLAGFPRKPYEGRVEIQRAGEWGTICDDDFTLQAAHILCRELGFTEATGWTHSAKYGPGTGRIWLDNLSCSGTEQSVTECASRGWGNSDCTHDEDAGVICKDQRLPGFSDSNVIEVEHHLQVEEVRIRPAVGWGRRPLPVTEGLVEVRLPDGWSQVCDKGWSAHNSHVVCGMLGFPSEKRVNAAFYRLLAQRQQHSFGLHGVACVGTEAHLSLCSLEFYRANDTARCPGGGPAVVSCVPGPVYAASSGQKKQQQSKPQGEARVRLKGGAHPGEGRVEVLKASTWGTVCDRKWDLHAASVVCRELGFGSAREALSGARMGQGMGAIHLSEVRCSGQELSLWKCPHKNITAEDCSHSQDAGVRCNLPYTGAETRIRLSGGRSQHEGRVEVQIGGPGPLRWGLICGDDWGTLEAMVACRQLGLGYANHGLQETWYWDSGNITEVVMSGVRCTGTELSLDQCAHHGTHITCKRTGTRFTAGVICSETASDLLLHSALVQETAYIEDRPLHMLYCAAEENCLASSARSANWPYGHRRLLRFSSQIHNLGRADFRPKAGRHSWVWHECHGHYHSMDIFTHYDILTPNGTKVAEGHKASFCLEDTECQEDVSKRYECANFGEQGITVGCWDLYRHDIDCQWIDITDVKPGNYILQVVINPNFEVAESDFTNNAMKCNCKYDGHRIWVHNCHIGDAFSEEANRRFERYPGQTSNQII", "test": "Amplex-Red fluorometric enzymatic activity assay, recombinant human LOXL3", "type": "biochemical", "conditions": "30 minute pre-incubation; average of at least three experiments", "procedure": "as §2, §3"}, "[4]": {"test": "Pharmacokinetic study in rats", "type": "in vivo, Wistar rats", "conditions": "rat", "procedure": "as §1"}}, "data": [{"smiles": "Cc1c(-c2cccc(S(=O)(=O)N(C)C)c2)c2ncccc2n1C/C(F)=C/CN.Cl.Cl", "note": "[PXS-5153A]", "values": [{"measurement": "% inhibition", "setting": "[1]", "value": 33, "unit": "%"}, {"measurement": "Apparent half-life, t1/2", "setting": "[2]; intravenous 5 mg/kg", "value": 96, "unit": "min"}, {"measurement": "Clearance CL", "setting": "[2]; intravenous 5 mg/kg", "value": 673, "unit": "mL/min/kg"}, {"measurement": "Time of maximal concentration Tmax", "setting": "[2]; intravenous 5 mg/kg", "value": 4.8, "unit": "min"}, {"measurement": "Apparent concentration at curve maximum Cmax", "setting": "[2]; oral 5 mg/kg", "value": 113, "unit": "ng/mL"}, {"measurement": "Clearance CL", "setting": "[2]; oral 5 mg/kg", "value": 593, "unit": "mL/min/kg"}, {"measurement": "Time of maximal concentration Tmax", "setting": "[2]; oral 5 mg/kg", "value": 60, "unit": "min"}, {"measurement": "Bioavailability", "setting": "[2]; oral 5 mg/kg (i.v. 5 mg/kg)", "value": 40, "unit": "%"}, {"measurement": "IC50", "setting": "Recombinant human LOXL4", "value": 104, "unit": "nM"}, {"measurement": "pIC50 ± SD", "setting": "Recombinant human LOXL4", "value": "7 ± 0.1"}, {"measurement": "IC50", "setting": "[3]", "value": "> 30000", "unit": "nM"}, {"measurement": "IC50", "setting": "Recombinant dog LOXL2", "value": 9, "unit": "nM"}, {"measurement": "pIC50 ± SD", "setting": "Recombinant dog LOXL2", "value": "8.04 ± 0.05"}, {"measurement": "% inhibition", "setting": "Cannabinoid CB1", "value": 17, "unit": "%"}, {"measurement": "% inhibition", "setting": "Muscarinic M3", "value": 9, "unit": "%"}, {"measurement": "IC50", "setting": "Recombinant mouse LOXL2", "value": 21, "unit": "nM"}, {"measurement": "pIC50 ± SD", "setting": "Recombinant mouse LOXL2", "value": "7.7 ± 0.2"}, {"measurement": "IC50", "setting": "Recombinant human LOXL3", "value": 63, "unit": "nM"}, {"measurement": "pIC50 ± SD", "setting": "Recombinant human LOXL3", "value": "7.2 ± 0.23"}, {"measurement": "Apparent half-life, t1/2", "setting": "[4]; intravenous 5 mg/kg", "value": 78, "unit": "min"}, {"measurement": "Clearance CL", "setting": "[4]; intravenous 5 mg/kg", "value": 180, "unit": "mL/min/kg"}, {"measurement": "Time of maximal concentration Tmax", "setting": "[4]; intravenous 5 mg/kg", "value": 1.8, "unit": "min"}, {"measurement": "Apparent concentration at curve maximum Cmax", "setting": "[4]; oral 10 mg/kg", "value": 33, "unit": "ng/mL"}, {"measurement": "Clearance CL", "setting": "[4]; oral 10 mg/kg", "value": 2029, "unit": "mL/min/kg"}, {"measurement": "Time of maximal concentration Tmax", "setting": "[4]; oral 10 mg/kg", "value": 37.5, "unit": "min"}, {"measurement": "Bioavailability", "setting": "[4]; oral 10 mg/kg (i.v. 5 mg/kg)", "value": 10, "unit": "%"}]}]}
